Assay results published in ChEMBL document CHEMBL5303573, “Mapping human microbiome drug metabolism by gut bacteria and their genes” (Nature, 2019).

Experiments:
[1] = The drug is tested on Collinsella intestinalis strain: DSM13280 for biotransformation. The drug concentrations were measured before and after a 12-h incubation by liquid-chromatography-coupled mass spectrometry (LC–MS); conditions: 2 µM
[2] = The drug is tested on Dorea formicigenerans strain: ATCC27755 for biotransformation. The drug concentrations were measured before and after a 12-h incubation by liquid-chromatography-coupled mass spectrometry (LC–MS); conditions: 2 µM
[3] = The drug is tested on Eubacterium rectale strain: ATCC33656 for biotransformation. The drug concentrations were measured before and after a 12-h incubation by liquid-chromatography-coupled mass spectrometry (LC–MS); conditions: agathobacter rectalis, 2 µM
[4] = bacteroides thetaiotaomicron, 12 h, 2 µM
Description: The drug is tested on Bacteroides thetaiotaomicron strain: 3731 for biotransformation. The drug concentrations were measured before and after a 12-h incubation by liquid-chromatography-coupled mass spectrometry (LC–MS)

[5] = The drug is tested on Collinsella aerofaciens strain: ATCC25986 for biotransformation. The drug concentrations were measured before and after a 12-h incubation by liquid-chromatography-coupled mass spectrometry (LC–MS); conditions: 2 µM
[6] = The drug is tested on Odoribacter splanchnicus strain: fecal isolate for biotransformation. The drug concentrations were measured before and after a 12-h incubation by liquid-chromatography-coupled mass spectrometry (LC–MS); conditions: 2 µM
[7] = The drug is tested on Bacteroides ovatus strain: ATCC8483 for biotransformation. The drug concentrations were measured before and after a 12-h incubation by liquid-chromatography-coupled mass spectrometry (LC–MS); conditions: 2 µM
[8] = The drug is tested on Providencia rettgeri strain: DSM1131 for biotransformation. The drug concentrations were measured before and after a 12-h incubation by liquid-chromatography-coupled mass spectrometry (LC–MS); type: ADME; parameters: dose 2 uM, timepoint 0 vs 12 hours; conditions: 2 µM
[9] = The drug is tested on Bacteroides fragilis strain: HMW615 for biotransformation. The drug concentrations were measured before and after a 12-h incubation by liquid-chromatography-coupled mass spectrometry (LC–MS); conditions: 2 µM
[10] = bacteroides fragilis, 12 h, 2 µM
Description: The drug is tested on Bacteroides fragilis strain: 3397 (T10) for biotransformation. The drug concentrations were measured before and after a 12-h incubation by liquid-chromatography-coupled mass spectrometry (LC–MS)

[11] = bacteroides thetaiotaomicron, 12 h, 2 µM; remark: listed apart in the source
Description: The drug is tested on Bacteroides thetaiotaomicron strain: VPI-5482 for biotransformation. The drug concentrations were measured before and after a 12-h incubation by liquid-chromatography-coupled mass spectrometry (LC–MS)

[12] = akkermansia muciniphila, 12 h, 2 µM
Description: The drug is tested on Akkermansia muciniphila strain: ATCC BAA-835 for biotransformation. The drug concentrations were measured before and after a 12-h incubation by liquid-chromatography-coupled mass spectrometry (LC–MS)

[13] = The drug is tested on Bacteroides coprophilus strain: DSM18228 for biotransformation. The drug concentrations were measured before and after a 12-h incubation by liquid-chromatography-coupled mass spectrometry (LC–MS); conditions: 2 µM
[14] = The drug is tested on Bacteroides xylanisolvens strain: DSM18836 for biotransformation. The drug concentrations were measured before and after a 12-h incubation by liquid-chromatography-coupled mass spectrometry (LC–MS); conditions: 2 µM
[15] = The drug is tested on Providencia stuartii strain: ATCC25827 for biotransformation. The drug concentrations were measured before and after a 12-h incubation by liquid-chromatography-coupled mass spectrometry (LC–MS); conditions: 2 µM
[16] = The drug is tested on Bacteroides cellulosilyticus strain: DSM14838 for biotransformation. The drug concentrations were measured before and after a 12-h incubation by liquid-chromatography-coupled mass spectrometry (LC–MS); conditions: 2 µM
[17] = The drug is tested on Bacteroides sp. WH2 strain: WH2 for biotransformation. The drug concentrations were measured before and after a 12-h incubation by liquid-chromatography-coupled mass spectrometry (LC–MS); conditions: bacteroides sp. wh2, 12 h, 2 µM
[18] = The drug is tested on Clostridium sporogenes strain: ATCC15579 for biotransformation. The drug concentrations were measured before and after a 12-h incubation by liquid-chromatography-coupled mass spectrometry (LC–MS); conditions: 2 µM
[19] = parabacteroides johnsonii, 12 h, 2 µM
Description: The drug is tested on Parabacteroides johnsonii strain: DSM18315 for biotransformation. The drug concentrations were measured before and after a 12-h incubation by liquid-chromatography-coupled mass spectrometry (LC–MS)

[20] = The drug is tested on Bacteroides fragilis strain: ATCC43859 for biotransformation. The drug concentrations were measured before and after a 12-h incubation by liquid-chromatography-coupled mass spectrometry (LC–MS); conditions: 2 µM

Row | SMILES | Bacterial Biotransformation [1] | Bacterial Biotransformation [2] | Bacterial Biotransformation [3] | Bacterial Biotransformation [4] | Bacterial Biotransformation [5] | Bacterial Biotransformation [6] | Bacterial Biotransformation [7] | Bacterial Biotransformation [8] | Bacterial Biotransformation [9] | Bacterial Biotransformation [10] | Bacterial Biotransformation [11] | Bacterial Biotransformation [12] | Bacterial Biotransformation [13] | Bacterial Biotransformation [14] | Bacterial Biotransformation [15] | Bacterial Biotransformation [16] | Bacterial Biotransformation [17] | Bacterial Biotransformation [18] | Bacterial Biotransformation [19] | Bacterial Biotransformation [20]
1 | CS(=O)(=O)O.OC(CCN1CCCCC1)(c1ccccc1)c1ccccc1 [PRIDINOL METHANESULFONATE] | Compound NOT metabolized | Compound NOT metabolized | Compound NOT metabolized | Compound NOT metabolized | Compound NOT metabolized | Compound NOT metabolized | Compound NOT metabolized | Compound NOT metabolized | Compound NOT metabolized | Compound NOT metabolized | Compound NOT metabolized | Compound NOT metabolized | Compound NOT metabolized | Compound NOT metabolized | Compound NOT metabolized | Compound NOT metabolized | Compound NOT metabolized | Compound NOT metabolized | – | –
2 | C#C[C@]1(OC(C)=O)CC[C@H]2[C@@H]3CCC4=C[C@@H](OC(C)=O)CC[C@@H]4[C@H]3CC[C@@]21C [ETHYNODIOL DIACETATE] | Compound NOT metabolized | Compound NOT metabolized | Compound NOT metabolized | Compound NOT metabolized | Compound NOT metabolized | Compound NOT metabolized | Compound NOT metabolized | Compound NOT metabolized | Compound NOT metabolized | Compound NOT metabolized | Compound NOT metabolized | Compound NOT metabolized | Compound NOT metabolized | Compound NOT metabolized | Compound NOT metabolized | Compound NOT metabolized | Compound NOT metabolized | Compound NOT metabolized | – | –
3 | CC(C)(C)NC[C@H](O)COc1nsnc1N1CCOCC1.O=C(O)/C=C\C(=O)O [TIMOLOL MALEATE] | Compound NOT metabolized | Compound NOT metabolized | Compound NOT metabolized | Compound NOT metabolized | Compound NOT metabolized | Compound NOT metabolized | Compound NOT metabolized | Compound NOT metabolized | – | Compound NOT metabolized | Compound NOT metabolized | Compound NOT metabolized | Compound NOT metabolized | Compound NOT metabolized | Compound NOT metabolized | Compound NOT metabolized | Compound NOT metabolized | Compound NOT metabolized | Compound NOT metabolized | –
4 | CC(O)(CS(=O)(=O)c1ccc(F)cc1)C(=O)Nc1ccc(C#N)c(C(F)(F)F)c1 (stereo unspecified) [BICALUTAMIDE] | Compound NOT metabolized | Compound NOT metabolized | Compound NOT metabolized | Compound NOT metabolized | Compound NOT metabolized | Compound metabolized | Compound NOT metabolized | – | Compound metabolized | Compound NOT metabolized | Compound NOT metabolized | Compound NOT metabolized | Compound NOT metabolized | Compound NOT metabolized | Compound NOT metabolized | Compound NOT metabolized | Compound NOT metabolized | Compound NOT metabolized | Compound NOT metabolized | –
5 | Cc1ccc(-c2nc3ccc(C)cn3c2CC(=O)N(C)C)cc1 [ZOLPIDEM] | Compound NOT metabolized | Compound NOT metabolized | Compound NOT metabolized | Compound NOT metabolized | Compound NOT metabolized | Compound NOT metabolized | – | Compound NOT metabolized | Compound NOT metabolized | Compound NOT metabolized | – | Compound NOT metabolized | – | – | Compound NOT metabolized | Compound NOT metabolized | Compound NOT metabolized | Compound NOT metabolized | – | –
6 | O=C1N=C([O-])NC1(c1ccccc1)c1ccccc1.[Na+] [PHENYTOIN SODIUM] | – | Compound NOT metabolized | – | Compound NOT metabolized | Compound metabolized | Compound metabolized | Compound metabolized | Compound NOT metabolized | Compound NOT metabolized | – | Compound NOT metabolized | – | Compound metabolized | Compound NOT metabolized | Compound NOT metabolized | Compound metabolized | Compound metabolized | Compound metabolized | Compound metabolized | –
7 | C[C@]12CCC(=O)C=C1[C@@H]1C[C@@H]1[C@H]1[C@@H]3[C@@H]4C[C@@H]4[C@@]4(CCC(=O)O4)[C@@]3(C)CC[C@@H]12 [DROSPIRENONE] | Compound NOT metabolized | Compound NOT metabolized | Compound NOT metabolized | Compound NOT metabolized | Compound NOT metabolized | Compound metabolized | – | – | Compound metabolized | Compound NOT metabolized | – | Compound NOT metabolized | – | Compound metabolized | – | Compound NOT metabolized | Compound NOT metabolized | Compound metabolized | Compound metabolized | –
8 | CCN(CC)CCCC(C)Nc1c2ccc(Cl)cc2nc2ccc(OC)cc12 (stereo unspecified) [QUINACRINE] | Compound NOT metabolized | Compound NOT metabolized | – | Compound NOT metabolized | Compound NOT metabolized | Compound NOT metabolized | Compound NOT metabolized | – | – | Compound NOT metabolized | Compound NOT metabolized | Compound NOT metabolized | Compound NOT metabolized | Compound NOT metabolized | Compound NOT metabolized | Compound NOT metabolized | Compound NOT metabolized | Compound NOT metabolized | – | Compound NOT metabolized
